According to US7470658B2, “Methods for inhibiting tumor metastasis, and peptides useful therefor” (Burnham Institute for Medical Research, priority 1999, dated 2008):

What was measured:
E-selectin:IgG = details: comparison value for the heptapeptides; read-out: IC50 by ELISA binding assay using biotinylated sLe^a-PAA and E-selectin:IgG; cited from earlier work
E-selectin = test: Inhibition of binding between sLe^x-PAA-biotin and E-selectin:IgG by phage or peptides (ELISA); details: synthetic peptides (FIG. 1E); read-out: half inhibition value (IC50) of binding between sLe^x and E-selectin
E-selectin, sequence (P16581 22-175 limits assumed): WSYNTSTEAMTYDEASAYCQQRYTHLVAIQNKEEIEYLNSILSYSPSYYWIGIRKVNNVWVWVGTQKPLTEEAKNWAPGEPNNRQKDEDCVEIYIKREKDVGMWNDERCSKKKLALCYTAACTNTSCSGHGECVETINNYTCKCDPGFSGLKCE
Experimental: The inhibition of binding between sLe^x and E-selectin:IgG by phage or peptides was assayed by adding five hundred ng of polymeric sLe^x (sLe^x-PAA-biotin, GlycoTech, Rocksville, Md.) to wells in the presence or absence of phage or peptide. After incubating at room temperature for 1 hour, wells were washed with TBS containing CaCl2, and sLe^x-PAA-biotin bound to each selectin was determined using the peroxidase conjugated avidin and peroxidase substrate ABTS (Pierce, Rockford, Ill.). The OD405 was read in an ELISA reader. The synthetic peptides used were linear IELLQAR (SEQ ID NO:7), cyclic CIELLQARC (SEQ ID NO:13) (cysteins linked by disulfide bonds are underlined), and IELLQAR (SEQ ID NO:7) multivalent (Fmoc eight branch), which was synthesized by AnaSpec, Inc. (San Jose, Calif.).

mouse B16 melanoma cells = test: In vivo lung metastasis of B16 melanoma cells transfected with fucosyltransferase-III; details: peptide 500 mg/100 ml/mouse i.v. 20 minutes before 2×10^5 cells; foci counted after 3 weeks (FIG. 2B)
Experimental: (§1) The effect of IELLQAR (SEQ ID NO:7) phage and peptides on E-selectin mediated tumor metastasis was examined using mouse B16 melanoma cells or human melanoma MeWo cells transfected with fucosyltransferase-III, an enzyme which synthesizes sLe^x, as described in Kukowska-Latallo et al., Genes & Develop., 4:1288-1303 (1990). […] To test whether the heptapeptide sequence IELLQAR (SEQ ID NO:7) could inhibit metastasis in vivo, mice were injected with IELLQAR (SEQ ID NO:7) phage and with B16 cells through a tail vein and assayed for the presence of metastatic foci.
(§2) Phage (1×10^8 transducing units/100 ml/mouse) or peptide (500 mg/100 ml/mouse), each of which was equivalent to an amount 100 times the concentration required to inhibit binding between HL-60 to E-selectin determined by the in vitro assay described above in Example II (FIG. 1F), were injected intravenously into female mice (C57 black) that were 5-6 weeks old. The control phage lacks a consensus heptapeptide. The control peptide used in these experiments is MAPS alanine. After 20 minutes, metastatic tumor cells (2×10^5 cells) were administered through a tail vein. After 3 weeks, the numbers of metastatic foci appearing in the lung were counted.

[1] = system: human melanoma MeWo cells; test: In vivo lung metastasis of human melanoma MeWo cells transfected with fucosyltransferase-III; details: peptide 500 mg/100 ml/mouse i.v. 20 minutes before cells; after 3 weeks (FIG. 2C)
Experimental: as §1, §2

[2] = system: human lung carcinoma HAL-8 cells; test: In vivo lung metastasis of human lung carcinoma HAL-8 cells; parameters: species or system mouse; details: peptide pre-treatment i.v.
Experimental: as §2
The effect of IELLQAR (SEQ ID NO:7) peptide was assayed in the same manner described above.

[3] = system: vascular endothelial cells of the lung; test: Mouse lung histochemical analysis after intravenous injection of biotinylated peptide; format: in vivo; details: i.v. injection, one hour, peroxidase conjugated avidin
Source text: Control peptide corresponding to MAPS alanine and IELLQAR (SEQ ID NO:7) peptide were biotinylated with biotin succinamide (Sigma, St. Louis, Mo.) and injected intravenously into mice. One hour after injection, mice were sacrificed, and tissues were examined histochemically using peroxidase conjugated avidin (Cappel, West Chester, Pa.) by the peroxidase method (Vectastatin ABC kit, Vector, Burlingame, Calif.).

[4] = system: B16 melanoma cells in the lung; test: Immunohistochemistry of B16 melanoma cells in the lung (anti-melanoma HMB45); format: in vivo, mouse; details: pre-treated mice, one hour after administration of B16 cells
Experimental: Next, the immunohistochemistry in the mouse lung of melanoma cells injected intravenously was assayed. Mice were injected intravenously with either control phage, IELLQAR (SEQ ID NO:7) phage, control peptide, or IELLQAR (SEQ ID NO:7) peptide, followed by injection with B16 melanoma cells. One hour after administering B16 melanoma cells, the lungs were fixed in 4% paraformaldehyde and paraffin sections were prepared. The melanoma cells in the lung were visualized by immunostaining using anti-melanoma HMB45 mouse monoclonal IgG1 antibody (DAKO, Carpinteria, Calif.) by the peroxidase method (Vectastatin ABC kit, Vector, Burlingame, Calif.).

For `CC(=O)N[C@H]1[C@H](O[C@H]2[C@@H](O)[C@@H](CO)OC(O)[C@@H]2O)O[C@H](CO)[C@@H](O[C@@H]2O[C@H](CO)[C@H](O)[C@H](O[C@]3(C(=O)O)C[C@H](O)[C@@H](NC(C)=O)[C@H]([C@H](O)[C@H](O)CO)O3)[C@H]2O)[C@@H]1O[C@@H]1O[C@@H](C)[C@@H](O)[C@@H](O)[C@@H]1O` (some centres unmarked) [sLe^x oligosaccharide, NeuNAcα2→3Galβ1→4(Fucα1→3)GlcNAcβ1→3Gal], the IC50 (E-selectin:IgG) is listed as 550 µM.

With “IELLQAR (SEQ ID NO:7) multivalent (Fmoc eight branch) [multivalent IELLQAR peptide, IELLQAR multivalent peptide, Fmoc eight branch MAPS, synthesized by AnaSpec]” the IC50 (E-selectin) was 10 µM, the “metastasis of B16 melanoma to the lung, peptide pre-treatment” value (mouse B16 melanoma cells) was “effective in preventing metastasis” and the “metastases of human melanoma MeWo cells to the lung” value [1] was “inhibited efficiently”. For the same molecule, the “metastases of human lung carcinoma HAL-8 cells to the lung” value [2] was “inhibited efficiently”.

In the case of “IELLQAR [IELLQAR peptide, synthetic IELLQAR peptide injected into mice]”, the “staining of biotinylated peptide on lung vascular endothelium” value [3] is reported as “detected on the vascular surface epithelium of the lung” and the “state of B16 melanoma cells in lung tissue sections” value [4] is reported as “non-adherent and appeared apoptotic”.

Work on IELLQAR [linear heptapeptide] yielded an IC50 (E-selectin) of 200 µM.
